Here are results for one compound from US9556202B2, “Sulfonamide derivatives and methods of use thereof for improving the pharmacokinetics of a drug” (MERCK SHARP & DOHME CORP., priority 2012, dated 2017).

One experiment has as its target T1, CYP3A4 (Homo sapiens, UniProt P08684).
T1 construct: 0.01 mg/mL protein human liver microsomes (BD Gentest); tissue BD Gentest; host or cells: human liver microsomes
As to the kind of experiment: IC50 vs CYP3A by inhibition of lopinavir metabolism in human liver microsomes. As to conditions: human liver microsomes 0.01 mg/mL, 1.5 μM lopinavir, 8 min 37° C.; test conc. e.g. 0.098-100 nM; unit inferred; read-out: 3A4(LPV). The class given is biochemical. On the procedure:
Determination of IC50 Vs CYP3A by Measurement of Inhibition of Lopinavir Metabolism
This assay was performed in a standard 96-well plate design. IC50 values were calculated from the percent inhibition observed for each test compound at 6 concentrations (for example, 0.098, 0.391, 1.56, 6.25, 25 and 100 nM). The incubation substrate mix contains 1.5 μM lopinavir, 0.01 mg/mL protein human liver microsomes (BD Gentest), 1 mM NAPDH, 3.3 mM MgCl2 and 100 mM potassium phosphate buffer (pH 7.4). The production of the sum of three hydroxylated metabolites (M2: 6-hydroxy lopinavir, M3: 4-hydroxy lopinavir, M4: 4-hydroxy lopinavir (epimer of M3), Kumar et al., 1999) was determined after incubation for 8 min at 37° C. Quantitation of the metabolite peak area ratio against an internal standard (tolbutamide) was determined by LC/MS/MS analysis following acetonitrile treatment of the incubations.
Samples were analyzed in the MRM mode with a SCIEX API-4000 mass spectrometer (Applied Biosystems, Foster City, Calif.), with a Shimadzu LC-20 AD pump (Shimadzu corporation, Kyoto, JP) and a CTC PAL autosampler (Agilent Technologies, Switzerland). A Phenomenex, Luna, 5 μm, 100 A, 2.00×30 mm HPLC column was used for the separation. The mobile phases were: (A) 0.1% formic acid in water and (B) 0.1% formic acid in acetonitrile. The binary gradient was as follows.
The peak area ratio of the analyte to the internal standard was used to quantify the metabolite. The values of peak area ratios in the presence of test compound were compared to those of maximum or minimum controls and were expressed as % inhibition by interpolating between the maximum and minimum peak area ratios. Incubations with no inhibitor were defined as the maxima and with 5 μM ketoconazole were defined as the minima.
The following equation was used to calculate the % inhibition: [1−[(X−Low control)/(High control−Low control)]]*100
For the IC50 calculation, SigmaPlot was used to plot the mean % inhibition versus the test compound concentrations and for non-linear regression analysis of the data. Depending on the range of data points defining the inhibition curve, the data may have been fit to the 4-parameter logistic equation.
(Liver microsomes are vesicles of endoplasmic reticulum, rich in cytochrome P450 enzymes.)

A further experiment concerns the target T2, human CYP11B2 (Homo sapiens, UniProt P19099).
T2 construct: expressed in transfected cells
T2 sequence (P19099 25-503): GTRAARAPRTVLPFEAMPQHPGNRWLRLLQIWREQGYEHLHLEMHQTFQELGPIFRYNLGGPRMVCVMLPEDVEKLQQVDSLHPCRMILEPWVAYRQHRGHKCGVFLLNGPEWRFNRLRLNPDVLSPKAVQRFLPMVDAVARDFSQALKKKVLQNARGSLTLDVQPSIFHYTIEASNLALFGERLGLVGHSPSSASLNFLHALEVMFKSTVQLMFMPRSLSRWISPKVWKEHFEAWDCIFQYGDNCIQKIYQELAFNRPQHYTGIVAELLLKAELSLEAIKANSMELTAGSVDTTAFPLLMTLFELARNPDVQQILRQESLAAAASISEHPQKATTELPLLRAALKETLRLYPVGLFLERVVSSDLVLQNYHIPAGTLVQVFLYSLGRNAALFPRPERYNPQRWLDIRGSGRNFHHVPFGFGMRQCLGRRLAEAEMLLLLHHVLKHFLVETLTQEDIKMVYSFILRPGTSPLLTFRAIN
As to the kind of experiment: IC50 vs CYP11B2 by aldosterone synthesis in V79 cells (HTRF). The format is cell-based. Conditions: V79 cells expressing human CYP11B2, 750 nM DOC, test conc. 0.5-10000 nM, unit inferred. Here is the method: Determination of IC50 Vs CYP11B1/CYP11B2 by Measurement of Cortisol/Aldosterone Synthesis
This assay was performed in a standard 384-well plate design using cultured V79 cells stably expressing human CYP11B1 or human CYP11B2. Test compounds at 10 concentrations (for example, 10000, 3333.3, 1111.1, 370.4, 123.5, 41.2, 13.7, 4.6, 1.5 and 0.5 nM) were added in 384-well plate after the cell-seeding procedure. The incubation substrate contains 1500 nM RSS for CYP11B1 assay/750 nM DOC for CYP11B2 assay. The Cortisol/Aldosterone production of cell culture supernatant was determined by Cortisol/Aldosterone HTRF kit after for about 15 hours incubation at RT (protect from light). IC50 values were calculated from the percent inhibition observed for each test compound at 10 concentrations.
The assay plate was read using Envision (Perkin Elmer, Waltham, Mass.) at 665 nm and 590 nm (using Filter Barcode of 217#, 205#; Mirror Barcode of 446#).
Data are analyzed using Assay Data Analyzer. All ratio data (665 nm/590 nm) are back calculated according to the standard curve, resulting in Cortisol/Aldosterone concentrations. IC50 values are reported as the Inflection Point (IP) of a four parameter fit of the titration data.
The following equation was used to calculate the % inhibition: % Activity=100×{1−(Sample_back calculated Cortisol/Aldosterone concentration−LC_back calculated Cortisol/Aldosterone concentration)/(HC_back calculated Cortisol/Aldosterone concentration−LC_back calculated Cortisol/Aldosterone concentration)} Curve Fitting: Four Parameter Logistic: […]

T1 sequence (P08684 2-503): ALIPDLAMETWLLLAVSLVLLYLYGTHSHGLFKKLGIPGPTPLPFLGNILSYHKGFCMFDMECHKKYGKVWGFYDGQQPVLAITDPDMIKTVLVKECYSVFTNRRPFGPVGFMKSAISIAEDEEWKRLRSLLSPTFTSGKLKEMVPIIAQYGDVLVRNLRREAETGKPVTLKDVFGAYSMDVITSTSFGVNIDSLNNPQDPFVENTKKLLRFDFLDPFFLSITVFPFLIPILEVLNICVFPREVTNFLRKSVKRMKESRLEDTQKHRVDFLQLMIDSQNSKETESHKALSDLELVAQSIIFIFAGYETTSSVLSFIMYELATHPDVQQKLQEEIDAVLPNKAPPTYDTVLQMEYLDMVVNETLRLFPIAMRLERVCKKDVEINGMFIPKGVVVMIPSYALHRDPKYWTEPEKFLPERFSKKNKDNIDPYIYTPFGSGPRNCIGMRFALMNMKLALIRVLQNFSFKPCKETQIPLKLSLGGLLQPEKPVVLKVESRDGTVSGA

In the case of `C[C@H](c1ccc(F)cc1)n1cncc1CN1CCN(S(=O)(=O)c2cnc(N3CCC(S(C)(=O)=O)C3)s2)CC1` (some centres unmarked) [Compound 7], the IC50 on CYP3A4 turned out to be 0.0017 µM; at human CYP11B2, 16.3 µM.
